According to patent US8192962B2, “Processes for detecting toxic substances” (Daikin Industries, Ltd., priority 2001, dated 2012):

Tested on: Genes belonging to other category
Test: DNA chip mRNA expression in yeast, genes belonging to other category (Table 9)
Assay type: cell-based, Saccharomyces cerevisiae S288C
Outline: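 Expression change after 2 h toxicant exposure (growth-inhibiting, sub-lethal) of log-phase S. cerevisiae S288C at 25° C. Oligo-dT-purified mRNA was labeled with Cy3-dUTP or Cy5-dUTP and hybridized >12 h at 65° C. to a genome-wide chip; ratio of scanned fluorescence to control.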

S=C([S-])NCCNC(=S)[S-].[Zn+2] [(11), zinc N,N′-ethylenebis(dithiocarbamate)]
The level of expressed mRNA in the presence of chemical substance/The level of expressed mRNA in the absence of chemical substance (yeast gene YDR427W): 1.2
The level of expressed mRNA in the presence of chemical substance/The level of expressed mRNA in the absence of chemical substance (yeast gene YDR432W): 0.6
The level of expressed mRNA in the presence of chemical substance/The level of expressed mRNA in the absence of chemical substance (yeast gene YDR481C): 1.2
The level of expressed mRNA in the presence of chemical substance/The level of expressed mRNA in the absence of chemical substance (yeast gene YDR488C): 0.4
The level of expressed mRNA in the presence of chemical substance/The level of expressed mRNA in the absence of chemical substance (yeast gene YDR510W): 1.6
The level of expressed mRNA in the presence of chemical substance/The level of expressed mRNA in the absence of chemical substance (yeast gene YEL042W): 1.6
The level of expressed mRNA in the presence of chemical substance/The level of expressed mRNA in the absence of chemical substance (yeast gene YEL066W): 1.9
The level of expressed mRNA in the presence of chemical substance/The level of expressed mRNA in the absence of chemical substance (yeast gene YER009W): 1.4
The level of expressed mRNA in the presence of chemical substance/The level of expressed mRNA in the absence of chemical substance (yeast gene YER025W): 1.2
The level of expressed mRNA in the presence of chemical substance/The level of expressed mRNA in the absence of chemical substance (yeast gene YER039C): 1.2
The level of expressed mRNA in the presence of chemical substance/The level of expressed mRNA in the absence of chemical substance (yeast gene YER076C): 0.7
The level of expressed mRNA in the presence of chemical substance/The level of expressed mRNA in the absence of chemical substance (yeast gene YER078C): 1.3
The level of expressed mRNA in the presence of chemical substance/The level of expressed mRNA in the absence of chemical substance (yeast gene YER107C): 0.7
The level of expressed mRNA in the presence of chemical substance/The level of expressed mRNA in the absence of chemical substance (yeast gene YER130C): 0.9
The level of expressed mRNA in the presence of chemical substance/The level of expressed mRNA in the absence of chemical substance (yeast gene YER177W): 1.9
The level of expressed mRNA in the presence of chemical substance/The level of expressed mRNA in the absence of chemical substance (yeast gene YFL022C): 1.2
The level of expressed mRNA in the presence of chemical substance/The level of expressed mRNA in the absence of chemical substance (yeast gene YFL028C): 1.3
The level of expressed mRNA in the presence of chemical substance/The level of expressed mRNA in the absence of chemical substance (yeast gene YFL038C): 1.7
The level of expressed mRNA in the presence of chemical substance/The level of expressed mRNA in the absence of chemical substance (yeast gene YFL043C): 1.1
The level of expressed mRNA in the presence of chemical substance/The level of expressed mRNA in the absence of chemical substance (yeast gene YFR006W): 1.2
The level of expressed mRNA in the presence of chemical substance/The level of expressed mRNA in the absence of chemical substance (yeast gene YFR050C): 1.4
The level of expressed mRNA in the presence of chemical substance/The level of expressed mRNA in the absence of chemical substance (yeast gene YFR051C): 1.3
The level of expressed mRNA in the presence of chemical substance/The level of expressed mRNA in the absence of chemical substance (yeast gene YGL094C): 0.6
The level of expressed mRNA in the presence of chemical substance/The level of expressed mRNA in the absence of chemical substance (yeast gene YGL150C): 0.4
The level of expressed mRNA in the presence of chemical substance/The level of expressed mRNA in the absence of chemical substance (yeast gene YGL158W): 0.2
The level of expressed mRNA in the presence of chemical substance/The level of expressed mRNA in the absence of chemical substance (yeast gene YGL207W): 0.7
The level of expressed mRNA in the presence of chemical substance/The level of expressed mRNA in the absence of chemical substance (yeast gene YGL229C): 1.1
The level of expressed mRNA in the presence of chemical substance/The level of expressed mRNA in the absence of chemical substance (yeast gene YGR136W): 1.3
The level of expressed mRNA in the presence of chemical substance/The level of expressed mRNA in the absence of chemical substance (yeast gene YGR189C): 1.5
The level of expressed mRNA in the presence of chemical substance/The level of expressed mRNA in the absence of chemical substance (yeast gene YGR213C): 1.6
The level of expressed mRNA in the presence of chemical substance/The level of expressed mRNA in the absence of chemical substance (yeast gene YGR232W): 1.3
The level of expressed mRNA in the presence of chemical substance/The level of expressed mRNA in the absence of chemical substance (yeast gene YGR239C): 1.4
The level of expressed mRNA in the presence of chemical substance/The level of expressed mRNA in the absence of chemical substance (yeast gene YGR253C): 2.4
The level of expressed mRNA in the presence of chemical substance/The level of expressed mRNA in the absence of chemical substance (yeast gene YGR257C): 1.2
The level of expressed mRNA in the presence of chemical substance/The level of expressed mRNA in the absence of chemical substance (yeast gene YHR004C): 0.8
The level of expressed mRNA in the presence of chemical substance/The level of expressed mRNA in the absence of chemical substance (yeast gene YHR071W): 1.8
The level of expressed mRNA in the presence of chemical substance/The level of expressed mRNA in the absence of chemical substance (yeast gene YHR139C): 3.5
The level of expressed mRNA in the presence of chemical substance/The level of expressed mRNA in the absence of chemical substance (yeast gene YHR142W): 1.1
The level of expressed mRNA in the presence of chemical substance/The level of expressed mRNA in the absence of chemical substance (yeast gene YHR166C): 0.6
The level of expressed mRNA in the presence of chemical substance/The level of expressed mRNA in the absence of chemical substance (yeast gene YHR185C): 0.7
The level of expressed mRNA in the presence of chemical substance/The level of expressed mRNA in the absence of chemical substance (yeast gene YHR195W): 1.4
The level of expressed mRNA in the presence of chemical substance/The level of expressed mRNA in the absence of chemical substance (yeast gene YHR205W): 0.9
The level of expressed mRNA in the presence of chemical substance/The level of expressed mRNA in the absence of chemical substance (yeast gene YIL018W): 1.2
The level of expressed mRNA in the presence of chemical substance/The level of expressed mRNA in the absence of chemical substance (yeast gene YIL123W): 1.2
The level of expressed mRNA in the presence of chemical substance/The level of expressed mRNA in the absence of chemical substance (yeast gene YIL140W): 0.9
The level of expressed mRNA in the presence of chemical substance/The level of expressed mRNA in the absence of chemical substance (yeast gene YJL073W): 0.5
The level of expressed mRNA in the presence of chemical substance/The level of expressed mRNA in the absence of chemical substance (yeast gene YJL089W): 0.6
The level of expressed mRNA in the presence of chemical substance/The level of expressed mRNA in the absence of chemical substance (yeast gene YJL113W): 1.2
The level of expressed mRNA in the presence of chemical substance/The level of expressed mRNA in the absence of chemical substance (yeast gene YJL116C): 2.9
The level of expressed mRNA in the presence of chemical substance/The level of expressed mRNA in the absence of chemical substance (yeast gene YJL138C): 1.2
